We go through two molecules from patent US5281583A, “LPS-containing analgesics and veterinary analgesics” (priority 1990, dated 1994).

One assay concerns C3H/H male mice. The assay can be described thus: acetic acid-writhing method, intravenous, time course in comparison with phenylbutazone. The settings on record: for Writhing frequency / writhing inhibition: Group B, i.v. 1 mg/mouse. The assay is classed as in vivo, mouse. The source says: The analgesic effects of the LPSs of the present invention have been confirmed by an experiment using animals according to the acetic acid-writhing method described on page 415 of "Inflammation and anti-inflammatory therapy" issued in 1982 by Ishiyaku Shuppan Co. in Japan, one of the established methods for the determination of the effects of non-narcotic analgesics. The experiment included comparison with the prior art phenylbutazone which is often used to eliminate inflammatory pain.
2) The following preparations were given to six-membered groups of 8 week old C3H/H male mice (body weight: 20-25 g).
Group A: an intravenous solution prepared by dissolving 1 μg by weight/mouse of LPS (wheat LPS prepared in Reference Example 1) in 0.2 ml of physiological saline.
Group B: an intravenous solution prepared by dissolving 1 mg/mouse of the prior art analgesic phenylbutazone in 0.2 ml of 1% aqueous CMC solution.
Group C: 0.2 ml of physiological saline.
0.5 ml of 1% acetic acid was administered intraperitoneally 0.5, 1.5, 3, 8 or 18 hours after the administration of the preparations, and the writhing frequency of the respective mice was counted. The results are shown in Table 9 as an average of six mice in the respective groups. In the table, the writhing inhibition (%) was calculated as follows: [formula]
In the above equation, the writhing frequency in the group C is that obtained in the case where acetic acid was given 30 minutes after the administration of physiological saline, and the counting was made for 30 minutes. The data of the group A was 39, whereas that of the group B was 35.

Assay [1] concerns macrophage peritoneal cells of mice. The assay can be described thus: ability of LPS to activate in vitro TNF productivity of macrophage (TNF activity by cytotoxicity to L929 cells). Type of assay: cell-based, mouse. On the procedure:
In order to determine the ability of LPS to activate the in vitro TNF productivity of macrophage, a recombinant mouse IFN-γ is added to peritoneal macrophage cells of mouse as the primer followed by addition of the LPS as the trigger thereto, and then the TNF activity is determined.
The TNF activity is determined, as follows, on the basis of the cytotoxicity to L929 cells (Proci. Natl. Acad. Sci. U.S.A., 72, pp. 3666-3670, […]). L-929 cells are cultured in Eagles' Minimum Essential Medium (hereunder referred to only as MEM) with 5% fetal calf serum (hereunder referred to only as FCS) added thereto until 100 μl of the medium contains 8×10^4 cells, and then the cells are grown in a flat-bottomed plate having 96 wells.
The growth conditions are 37° C. in the presence of 5% CO2, and under a humidity of 100% for 2 hours, and the procedures may be the same as for the conventional cell culture. Then actinomycin D is added to the medium to a final concentration of 1 μg/ml, and the volume of the culture solution is adjusted to 150 μl. Immediately thereafter 50 μl of the sample diluted appropriately with MEM medium is added to the culture solution. Here, ED50 may be determined by adjusting the dilution appropriately. The L-929 cells having a final volume of 200 μl are cultured for an additional 18 hours under the same conditions as described above.
In order to determine the cell necrosis activity, first the whole medium is removed followed by addition of a 1% methyl alcoholic solution containing 0.1% crystal violet for fixation staining. Crystal violet stains all the eukaryotic cells, but the dead cells are removed off from the bottom of the flask only by washing after the staining; so the cell necrosis activity may be determined directly. The staining degree is measured on the basis of adsorption at OD590 nm, and is compared with that of a control to determine the cell necrosis activity. This activity is defined as follows.
The dilution of the sample which allows 50% of the L-929 cells to survive (N) is determined. Rabbit TNS is used as the control, and its activity n (units/ml) is determined using 2.4×10^6 units/mg/ml of TNF-α. The dilution which provides ED50 of rabbit TNS is determined.
The activity of the sample (units/ml) is calculated by the equation N/C×n.
Two hundred μl (2×10^5 cells)/well of macrophage peritoneal cells of mice (each group comprised three mice of 9 weeks old and having an average weight of 29 g) were placed in a flat-bottomed plate having 96 wells, and 10 μl of recombinant IFN-γ (100 units/ml) as a primer was placed in the respective wells. Separately, extracts prepared by extraction of various LPS sources with hot water at 65° C. for 5 hrs. were diluted to various degrees, and then were administered as triggers to the cells three hours after the administration of the primer in a proportion of 10 μl/well. After two hour culture, the culture solutions were subjected to centrifugation at 3,000 G for 20 min. A pipette was used to collect 130 μl of the supernatant from the respective wells, and the TNF activity was determined on the basis of the toxicity to L929 cells. The limulus test-positive LPS content was determined using Toxicolor System® commercially available from Sei-Kagaku Kogyo Co. in Japan.
The values were plotted to prepare a graph wherein the quantity of the TNF produced (units/ml of culture solution) was plotted along the axis of ordinate, whereas the corresponding limulus test-positive LPS content (ng/ml of culture solution) was plotted along the axis of abscissa (on a logarithmic scale), and a sigmoid curve was prepared on the basis of the plotted points. The macrophage activation ability was estimated to be 0% in the case where it corresponded to the quantity of TNF produced by macrophage with no trigger added thereto, and 100% was assigned to the macrophage activation ability which provided the maximal constant of TNF. […]

Setting [2] is: LPS 2 ng/ml of culture solution.
[3] abbreviates: LPS 24 ng/ml of culture solution.
The mark [4] stands for this setting: LPS 240 ng/ml of culture solution.
[5] abbreviates: LPS 2400 ng/ml of culture solution.

Consider `CCCCC1C(=O)N(c2ccccc2)N(c2ccccc2)C1=O` [phenylbutazone], for which the “significance of analgesic effects (double-sided t test)” value with C3H/H male mice (3 hours after administration) is listed as “no significant analgesic effects”. For the same molecule, the values for the Writhing frequency in the assay on C3H/H male mice (time lapsed 0.5 h), with C3H/H male mice (time lapsed 1.5 h) and with C3H/H male mice (time lapsed 3 h) were 18, 7 and 25, respectively. In addition, the writhing inhibition in the assay on C3H/H male mice (time lapsed 0.5 h) is on record as 49%; in the assay on C3H/H male mice (time lapsed 1.5 h) it was 80%; in the assay with C3H/H male mice (time lapsed 3 h), 29%.
Take Lipid A: the TNF produced in assay [1] (setting [2]) is 4.7 units/ml of culture solution; in assay [1] (setting [3]), 9.4 units/ml of culture solution; in assay [1] (setting [4]), 11.1 units/ml of culture solution; in assay [1] (setting [5]), 11.5 units/ml of culture solution. In addition, the macrophage activation ability in assay [1] (setting [2]) was found to be 37%; in assay [1] (setting [3]), 80%; in assay [1] (setting [4]), 96%; in assay [1] (setting [5]) it was 100%.
